According to US10259847B2, “Beta-hairpin peptidomimetics” (POLYPHOR AG, priority 2014, dated 2019):
Where a SMILES comes first, the peptide text is derived from it. Bridges are numbered along the chain shown (N, C = ends). [ ]: non-standard residue; d: D form. Tle = CC(C)(C)[C@H](N)C(=O)O; dDab = NCC[C@@H](N)C(=O)O; Orn = NCCC[C@H](N)C(=O)O; Dab = NCC[C@H](N)C(=O)O; dAze = O=C(O)[C@H]1CCN1; Dap = NC[C@H](N)C(=O)O

Key:
Type in all cases: cell-based
[1] = test system: Acinetobacter baumannii DSM 30008; conditions: DSM 30008
In short: (§1)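 Peptide activity was tested by NCCLS broth microdilution with slight modifications. Bacteria were diluted in cation-adjusted Mueller-Hinton II broth to approximately 10^6 CFU/mL against a 0.5 McFarland standard. They were then exposed to two-fold serial peptide dilutions in broth containing 0.002% final polysorbate 80.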

[2] = test system: Escherichia coli ATCC 25922; conditions: ATCC 25922
In short: as §1

[3] = test system: Klebsiella pneumoniae ATCC 13883; conditions: ATCC 13883
In short: as §1

[4] = test system: human red blood cells (hRBC); experiment: Hemolysis of human red blood cells; conditions: red cells of human, 1 h, 100
Procedure: Stock solutions were kept at +4° C., light protected.
Percent hemolysis was calculated as follows: (OD540peptide/OD540H2O)×100%.

Compound	Acinetobacter baumannii DSM 30008 MIC [1] [µg/mL]	Escherichia coli ATCC 25922 MIC [2] [µg/mL]	Klebsiella pneumoniae ATCC 13883 MIC [3] [µg/mL]	Hemolysis at 100 μg/mL [4] [%]
CC(C)[C@@H]1NC(=O)[C@@H]2CCCN2C(=O)[C@H]2CCN2C(=O)[C@H]([C@@H](C)O)NC(=O)[C@@H]2CC(=O)NCC[C@H](NC1=O)C(=O)N[C@@H](Cc1ccc(O)cc1)C(=O)N[C@@H](CCN)C(=O)N[C@@H](CN)C(=O)N[C@H](CCN)C(=O)N[C@@H](CCN)C(=O)N[C@@H](Cc1c[nH]c3ccccc13)C(=O)N[C@@H](CCN)C(=O)N[C@@H](C(C)(C)C)C(=O)N2 [Example 12, cyclo(-Val-Dab-Tyr-Dab-Dap-^DDab-Dab-Trp-Dab-tBuGly-Asp-Thr-^DAzt-Pro-)] (cyclo(DT[dAze]PV[Dab]Y[Dab][Dap][dDab][Dab]W[Dab][Tle]); lactam 1-6)	1	0.5	0.25	4
CC(C)C[C@@H]1NC(=O)[C@@H]2CCCN2C(=O)[C@H]2CCCN2C(=O)[C@H](CO)NC(=O)[C@@H]2CC(=O)NCC[C@H](NC1=O)C(=O)N[C@@H](Cc1ccc(O)cc1)C(=O)N[C@@H](CCN)C(=O)N[C@@H](CCCN)C(=O)N[C@H](CCN)C(=O)N[C@@H](CCN)C(=O)N[C@@H](Cc1c[nH]c3ccccc13)C(=O)N[C@@H](CCN)C(=O)N[C@@H](C(C)(C)C)C(=O)N2 [Example 37, cyclo(-Leu-Dab-Tyr-Dab-Orn-^DDab-Dab-Trp-Dab-tBuGly-Asp-Ser-^DPro-Pro-)] (HELM PEPTIDE1{L.[Dab].Y.[Dab].[Orn].[NCC[C@@H](N[*:1])C(=O)[*:2]].[Dab].W.[Dab].[CC(C)(C)[C@H](N[*:1])C(=O)[*:2]].D.S.[dP].P}$PEPTIDE1,PEPTIDE1,2:R3-11:R3|PEPTIDE1,PEPTIDE1,1:R1-14:R2$$$V2.0)	0.5	0.5	0.5	2.5
CC(C)C[C@@H]1NC(=O)[C@@H]2CCCN2C(=O)[C@H]2CCCN2C(=O)[C@H](CO)NC(=O)[C@@H]2CC(=O)NCC[C@H](NC1=O)C(=O)N[C@@H](Cc1ccc(O)cc1)C(=O)N[C@@H](CCN)C(=O)N[C@@H](CCCN)C(=O)N[C@@H](CCN)C(=O)N[C@@H](CCN)C(=O)N[C@@H](Cc1c[nH]c3ccccc13)C(=O)N[C@@H](CCN)C(=O)N[C@@H](C(C)(C)C)C(=O)N2 [Example 32, cyclo(-Leu-Dab-Tyr-Dab-Orn-Dab-Dab-Trp-Dab-tBuGly-Asp-Ser-^DPro-Pro-)] (HELM PEPTIDE1{L.[Dab].Y.[Dab].[Orn].[Dab].[Dab].W.[Dab].[CC(C)(C)[C@H](N[*:1])C(=O)[*:2]].D.S.[dP].P}$PEPTIDE1,PEPTIDE1,2:R3-11:R3|PEPTIDE1,PEPTIDE1,1:R1-14:R2$$$V2.0)	0.5	0.5	0.5	1
CC(C)[C@@H]1NC(=O)[C@@H]2CCCN2C(=O)[C@H]2CCCN2C(=O)[C@H](CO)NC(=O)[C@@H]2CC(=O)NCC[C@H](NC1=O)C(=O)N[C@@H](Cc1ccc(O)cc1)C(=O)N[C@@H](CCN)C(=O)N[C@@H](CCN)C(=O)N[C@H](CCN)C(=O)N[C@@H](CCN)C(=O)N[C@@H](Cc1c[nH]c3ccccc13)C(=O)N[C@@H](CCN)C(=O)N[C@@H](C(C)(C)C)C(=O)N2 [Example 28] (HELM PEPTIDE1{V.[Dab].Y.[Dab].[Dab].[NCC[C@@H](N[*:1])C(=O)[*:2]].[Dab].W.[Dab].[CC(C)(C)[C@H](N[*:1])C(=O)[*:2]].D.S.[dP].P}$PEPTIDE1,PEPTIDE1,2:R3-11:R3|PEPTIDE1,PEPTIDE1,1:R1-14:R2$$$V2.0)	2	0.5	0.5	1
CC(C)C[C@@H]1NC(=O)[C@@H]2CCCN2C(=O)[C@H]2CCCN2C(=O)[C@H](CO)NC(=O)[C@@H]2CCCCNC(=O)C[C@H](NC1=O)C(=O)N[C@@H](Cc1ccc(O)cc1)C(=O)N[C@@H](CCN)C(=O)N[C@@H](CCCN)C(=O)N[C@@H](CCN)C(=O)N[C@@H](CCN)C(=O)N[C@@H](Cc1c[nH]c3ccccc13)C(=O)N[C@@H](CCN)C(=O)N[C@@H](C(C)(C)C)C(=O)N2 [Example 25, cyclo(-Leu-Asp-Tyr-Dab-Orn-Dab-Dab-Trp-Dab-tBuGly-Lys-Ser-^DPro-Pro-)] (HELM PEPTIDE1{L.D.Y.[Dab].[Orn].[Dab].[Dab].W.[Dab].[CC(C)(C)[C@H](N[*:1])C(=O)[*:2]].K.S.[dP].P}$PEPTIDE1,PEPTIDE1,2:R3-11:R3|PEPTIDE1,PEPTIDE1,1:R1-14:R2$$$V2.0)	2	1	1	0
CC(C)C[C@@H]1NC(=O)[C@@H]2CCCN2C(=O)[C@H]2CCCN2C(=O)[C@H](CO)NC(=O)[C@@H]2CCNC(=O)C[C@H](NC1=O)C(=O)N[C@@H](Cc1ccc(O)cc1)C(=O)N[C@@H](CCN)C(=O)N[C@@H](CCCN)C(=O)N[C@H](CCN)C(=O)N[C@@H](CCN)C(=O)N[C@@H](Cc1c[nH]c3ccccc13)C(=O)N[C@@H](CCN)C(=O)N[C@@H](C(C)(C)C)C(=O)N2 [Example 22, cyclo(-Leu-Asp-Tyr-Dab-Orn-^DDab-Dab-Trp-Dab-tBuGly-Dab-Ser-^DPro-Pro-)] (HELM PEPTIDE1{L.D.Y.[Dab].[Orn].[NCC[C@@H](N[*:1])C(=O)[*:2]].[Dab].W.[Dab].[CC(C)(C)[C@H](N[*:1])C(=O)[*:2]].[Dab].S.[dP].P}$PEPTIDE1,PEPTIDE1,2:R3-11:R3|PEPTIDE1,PEPTIDE1,1:R1-14:R2$$$V2.0)	1	0.5	0.5	1.5
CC[C@H](C)[C@@H]1NC(=O)[C@@H]2CCCN2C(=O)[C@H]2CCCN2C(=O)[C@H](Cc2ccc(O)cc2)NC(=O)[C@@H]2CSSC[C@H](NC1=O)C(=O)N[C@@H](Cc1ccc(O)cc1)C(=O)N[C@@H](CCN)C(=O)N[C@@H](CCCN)C(=O)N[C@H](CCN)C(=O)N[C@@H](CCN)C(=O)N[C@@H](CC(C)C)C(=O)N[C@@H](CCN)C(=O)N[C@@H](C(C)C)C(=O)N2 [Example 7, cyclo(-Ile-Cys-Tyr-Dab-Orn-^DDab-Dab-Leu-Dab-Val-Cys-Tyr-^DPro-Pro-)] (HELM PEPTIDE1{I.C.Y.[Dab].[Orn].[NCC[C@@H](N[*:1])C(=O)[*:2]].[Dab].L.[Dab].V.C.Y.[dP].P}$PEPTIDE1,PEPTIDE1,2:R3-11:R3|PEPTIDE1,PEPTIDE1,1:R1-14:R2$$$V2.0)	1	0.5	0.25	11
CC(C)(C)[C@@H]1NC(=O)[C@H](CCN)NC(=O)[C@H](Cc2c[nH]c3ccccc23)NC(=O)[C@H](CCN)NC(=O)[C@@H](CCN)NC(=O)[C@H](CCCN)NC(=O)[C@H](CCCNC(=N)N)NC(=O)[C@H](Cc2ccc(O)cc2)NC(=O)[C@@H]2CCNC(=O)C[C@H](NC1=O)C(=O)N[C@@H](CO)C(=O)N1CCC[C@@H]1C(=O)N1CCC[C@H]1C(=O)N[C@@H](Cc1ccccc1)C(=O)N2 [Example 13, cyclo(-Phe-Dab-Tyr-Arg-Orn-^DDab-Dab-Trp-Dab-tBuGly-Asp-Ser-^DPro-Pro-)] (HELM PEPTIDE1{F.[Dab].Y.R.[Orn].[NCC[C@@H](N[*:1])C(=O)[*:2]].[Dab].W.[Dab].[CC(C)(C)[C@H](N[*:1])C(=O)[*:2]].D.S.[dP].P}$PEPTIDE1,PEPTIDE1,2:R3-11:R3|PEPTIDE1,PEPTIDE1,1:R1-14:R2$$$V2.0)	1	0.25	0.5	1
CC[C@H](C)[C@@H]1NC(=O)[C@@H]2CCCN2C(=O)[C@H]2CCCN2C(=O)[C@H](CO)NC(=O)[C@@H]2CSSC[C@H](NC1=O)C(=O)N[C@@H](Cc1ccc(O)cc1)C(=O)N[C@@H](CCN)C(=O)N[C@@H](CCCN)C(=O)N[C@H](CCN)C(=O)N[C@@H](CCN)C(=O)N[C@@H](Cc1c[nH]c3ccccc13)C(=O)N[C@@H](CCN)C(=O)N[C@@H](C(C)(C)C)C(=O)N2 [Example 10, cyclo(-Ile-Cys-Tyr-Dab-Orn-^DDab-Dab-Trp-Dab-tBuGly-Cys-Ser-^DPro-Pro-)] (HELM PEPTIDE1{I.C.Y.[Dab].[Orn].[NCC[C@@H](N[*:1])C(=O)[*:2]].[Dab].W.[Dab].[CC(C)(C)[C@H](N[*:1])C(=O)[*:2]].C.S.[dP].P}$PEPTIDE1,PEPTIDE1,2:R3-11:R3|PEPTIDE1,PEPTIDE1,1:R1-14:R2$$$V2.0)	1	1	0.25	1
C[C@@H]1NC(=O)[C@H](C(C)(C)C)NC(=O)[C@H](CCN)NC(=O)[C@H](Cc2c[nH]c3ccccc23)NC(=O)[C@H](CCN)NC(=O)[C@@H](CCN)NC(=O)[C@H](CCCN)NC(=O)[C@H](CCN)NC(=O)[C@H](Cc2ccc(O)cc2)NC(=O)[C@H](CN)NC(=O)[C@H](Cc2ccccc2)NC(=O)[C@H](Cc2ccccc2)NC(=O)[C@H]2CCCN2C(=O)[C@H](CO)NC1=O [Example 43, cyclo(-Phe-Dap-Tyr-Dab-Orn-^DDab-Dab-Trp-Dab-tBuGly-Ala-Ser-^DPro-Phe-)] (cyclo(AS[dP]FF[Dap]Y[Dab][Orn][dDab][Dab]W[Dab][Tle]))	1	1	0.25	1
